From US20140235542A1, “MODULAR, BIOACTIVE PEPTIDES FOR BINDING NATIVE BONE AND IMPROVING BONE GRAFT OSTEOINDUCTIVITY” (WISCONSIN ALUMNI RESEARCH FOUNDATION, priority 2013, published 2014)
Square brackets hold non-standard residues; d marks the D form. Ends that are not written are not given here. Gla = N[C@@H](CC(C(=O)O)C(=O)O)C(=O)O

Columns and labels:
[1] = Binding of 5(6)-FAM-conjugated modular peptides to HA-coated PLG films; details: 500 μg (1 mg/ml) 5(6)-FAM-conjugated peptide in PBS, 4 hr, 37° C., constant agitation
Method: Poly (lactide-coglycolide) (PLG) films were prepared via a solvent casting process in which PLG (85:15) pellets were dissolved in chloroform (50 mg/ml), added to a PTFE dish, and dried for 2 days. The films were further dried at 50-55° C. for 4 hr to remove residual solvent and samples were cooled to room temperature. Square films (1 cm^2) were manually cut out of the resulting PLG film sheets. A “bone-like” HA-based material layer was grown on the PLG films using a direct deposition technique by biomimetic mineralization in modified simulated body fluid (mSBF).
To measure the binding efficiency of modular peptides to the HA-coated PLG films and to gain preliminary insight into the properties that influence modular peptide immobilization, 1 cm^2 HA-coated PLG films was first exposed to PBS solutions containing 500 μg (1 mg/ml) of 5(6) FAM-conjugated eBMP-2, eBGu1, eBGu3, eBGa1, or eBGa3 modular peptide solution (See Table 1 for definitions of these abbreviations). The films were incubated in peptide solutions with constant agitation for 4 hr at 37° C., and the amount of free peptide remaining was determined by measuring the fluorescence emission of the solution (excitation: 494 nm; emission 519 nm) using a Synergy HT Multi-Detection Microplate Reader (BioTek, Winooski, Vt.), and comparing this emission to standard samples with known concentrations of 5(6)-FAM. To further characterize surface immobilization of the peptide with the highest binding efficiency—the eBGa3 peptide-1 cm^2 HA-coated films were incubated in various concentrations (50-750 nM) of 5(6)-FAM-conjugated eBGa3 peptide for 4 hr with constant agitation at 37° C. The amount of peptide bound to HA-coated film was again determined by fluorescence analysis, as described above.

[2] = Release kinetics of modular peptides from HA-coated film; details: after 5 days, PBS, 37° C.
Method: To quantify release kinetics of 5(6) FAM-conjugated modular peptides from HA-coated film, the films were first incubated in solutions containing 250 μM (˜500 μg) of each peptide (eBGu1, eBGu3, eBGa1, or eBGa3) to allow for binding (as described above), then incubated in 500 μl of PBS buffer at 37° C. with constant agitation for 5 days (eBGu1 and eBGu3 peptides) or 10 weeks (eBGa1 and eBGa3 peptides), respectively. Whole buffer solutions were changed at indicated time points and the amount of peptide released from the HA-coated film was determined via fluorescence analysis and comparison with standards containing known amounts of 5(6)-FAM. The fluorescent images of fluorescently-labeled peptides bound to HA-coated films were obtained using an Olympus IX51 fluorescence microscope (Olympus, Center Valley, Pa.).

[3] = Binding of VEGF peptides to HA particles / HA slab
Method: The binding behavior of the peptides (both modular peptide, VEGF-OCN (SEQ ID NO:18), and VEGF-mimic) were analyzed and compared as described above. The amount of bound VEGF-OCN on the HA particle increased with peptide concentration and reached saturation at 15 μM (FIG. 8A).

[4] = test system: mouse yolk sac endothelial C166-GFP cells; assay: C166-GFP cell proliferation on peptide-treated HA slabs (CYQUANT); type: cell-based; details: 2-day culture on HA slab incubated in peptide solution
Method: Cells were again seeded at a density of 2×10^4 cells/cm^2 (4×10^4 cells per well) in 24-well plate. Prior to seeding, HA slabs (1 cm×1 cm) were incubated in peptide solution (PBS) for four hours at 37° C. and copiously rinsed with deionized water, and then placed in a well of the 24-well plate. After 1-day culture, cells were treated with 2 μM calcein AM solution, and imaged using Olympus IX-51 microscope.
Additionally, a cell number count of the C166-GFP cells as cultured in the presence of VEGF-OCN or VEGF mimic was determined For the cell count, cells were seeded at a density of 5×10^3 cells/cm^2 (1×10^4 cells per well) in a 24-well plate. After 2-day culture, cells were detached from the HA slab and cell number was assessed using CYQUANT assay.

[5] = Binding of rhodamine-labeled peptide to cortical bone; set-up: species or system sheep
Method: The native bone used were harvested from sheep tibia and bovine sternum. Cortical (compact) bone slices were collected from sheep tibia with periosteum removed, and trabecular (cancellous, spongy) bone cores were drilled out from bovine sternum under sterile conditions.
The peptide binding to native bones was tested in three different experiments. In the first experiment, the cortical bone slices were incubated in modular peptide solution (0.5 mL, PBS) with concentrations of 50, 100, 200 and 300 μg/mL. The incubation was continued in a static condition for a period of 0.5, 1, 2 and 3 hours. For another experiment, the trabecular bone cores were placed in the chamber of bone bioreactor where the peptide solution prepared in DMEM (100 μg/mL, 6.5 mL) was continuously circulated through the chamber for a time period of 2, 4, 6, 8 and 10 hours. In the last experiment, mBMP was bound in a spatially controlled manner by dip-coating, spotting or writing with mBMP solution on native bone tissues. Following each experiment, the bones were rinsed with PBS to remove unbound peptide and their fluorescence images were captured using a Typhoon fluorescence scanner (GE healthcare) or a Nikon Eclipse Ti inverted microscope. To quantify the fluorescence intensity, the images were converted into 8-bit using ImageJ to present the intensity level of each pixel in the range of 0 to 255. The mean pixel intensity of a selected region of interest was considered to be proportional to the amount of peptide bound.
To examine mBMP binding to cortical bone without periosteum (ca. 4 mm×7 mm×1.5 mm) from the shaft of sheep tibia, the bone tissue was incubated in mBMP solution prepared in phosphate buffered saline (PBS). The binding of mBMP was concentration-dependent for each incubation time tested (FIGS. 12 and 13A). The quantity of mBMP binding was proportional to the solution concentration, which was clearly observed through all concentrations at 0.5 hour. However, this dependence was not apparent at higher concentrations at later time points. […] The insignificant dependence on the incubation time is likely attributed to the rapid binding of mBMP to native bone tissue.

| Substance | binding efficiency on the HA-coated PLG films [1] [%] | peptide released from HA-coated films [2] [%] | also measured |
| --- | --- | --- | --- |
| KIPKASSVPTELSAIATLYLAAAAEPRRAVAAL [eBGu1, modular BMP-2/OCN peptide with one Glu residue] | 10.3±4.7 | 98.89±18.84 |  |
| KLTWQELYQLKYKGI-GGGAAAA-γEPRRγEVAγEL (KLTWQELYQLKYKGIGGGAAAA[Gla]PRR[Gla]VA[Gla]L) [VEGF-OCN] |  |  | peptide concentration at which bound amount on HA particle reached saturation ([3]; HA particles): 15 µM; effect of peptide-treated HA slab on cell number [4]: promoted cell proliferation |
| KIPKASSVPTELSAISTLYLAAAAγEPRRAVAAL (KIPKASSVPTELSAISTLYLAAAA[Gla]PRRAVAAL-NH2; N-terminus assumed; SMILES CC[C@H](C)[C@H](NC(=O)[C@H](C)NC(=O)[C@H](CO)NC(=O)[C@H](CC(C)C)NC(=O)[C@H](CCC(=O)O)NC(=O)[C@@H](NC(=O)[C@@H]1CCCN1C(=O)[C@@H](NC(=O)[C@H](CO)NC(=O)[C@H](CO)NC(=O)[C@H](C)NC(=O)[C@H](CCCCN)NC(=O)[C@@H]1CCCN1C(=O)[C@@H](NC(=O)[C@@H](N)CCCCN)[C@@H](C)CC)C(C)C)[C@@H](C)O)C(=O)N[C@@H](CO)C(=O)N[C@H](C(=O)N[C@@H](CC(C)C)C(=O)N[C@@H](Cc1ccc(O)cc1)C(=O)N[C@@H](CC(C)C)C(=O)N[C@@H](C)C(=O)N[C@@H](C)C(=O)N[C@@H](C)C(=O)N[C@@H](C)C(=O)N[C@@H](CC(C(=O)O)C(=O)O)C(=O)N1CCC[C@H]1C(=O)N[C@@H](CCCNC(=N)N)C(=O)N[C@@H](CCCNC(=N)N)C(=O)N[C@@H](C)C(=O)N[C@H](C(=O)N[C@@H](C)C(=O)N[C@@H](C)C(=O)N[C@@H](CC(C)C)C(N)=O)C(C)C)[C@@H](C)O) [eBGa1, modular BMP-2/OCN peptide with one Gla residue] | 29.9±2 |  |  |
| KLTWQELYQLKYKGI [VEGF-mimic, VEGF helical region mimic first synthesized by Pedon, et al, reference compound] |  |  | amount of peptide bound to HA slab ([3]; HA slab, qualitative comparison): much less than that of VEGF-OCN |
| KIPKASSVPTELSAISTLYLAAAAEPRREVAEL [eBGu3, modular BMP-2/OCN peptide with Glu in place of Gla at three positions] | 7.6±7.8 | 93.33±17.24 | dependence of binding to cortical bone on concentration and incubation time ([5]; 50-300 μg/mL in PBS, 0.5-3 hours): independent of incubation time and peptide concentration; amount of peptide bound to cortical bone ([5]; each experimental condition tested): significantly less than that of mBMP |
